In ChEMBL document CHEMBL4308841, “Synthesis, in vitro antiproliferative activity, and kinase inhibitory effects of pyrazole-containing diarylureas and diarylamides” (Eur J Med Chem, 2018):

Experiments:
[1] = tested on: NCI-H522; test: Growth inhibition of human NCI-H522 cells assessed as cell growth at 10 uM incubated for 48 hrs by sulforhodamine B assay relative to control; format: functional; conditions: NCI-H522, 48 h, read-out: Activity
[2] = tested on: SF-295; test: Growth inhibition of human SF295 cells incubated for 48 hrs by sulforhodamine B assay; format: functional, cell-based; conditions: SF-295, 48 h
[3] = tested on: SF-539; test: Growth inhibition of human SF539 cells incubated for 48 hrs by sulforhodamine B assay; format: functional, cell-based; conditions: SF-539, 48 h
[4] = tested on: DU-145; test: Growth inhibition of human DU145 cells incubated for 48 hrs by sulforhodamine B assay; format: functional, cell-based; conditions: DU-145, 48 h
[5] = tested on: MCF7; test: Growth inhibition of human MCF7 cells incubated for 48 hrs by sulforhodamine B assay; format: functional, cell-based; conditions: MCF7, 48 h
[6] = tested on: SR; test: Growth inhibition of human SR cells assessed as cell growth at 0.01 uM incubated for 48 hrs by sulforhodamine B assay relative to control; format: functional; conditions: read-out: Activity
[7] = tested on: HCC 2998; test: Growth inhibition of human HCC2998 cells assessed as cell growth at 0.01 uM incubated for 48 hrs by sulforhodamine B assay relative to control; format: functional; conditions: HCC 2998, 48 h, read-out: Activity
[8] = tested on: HT-29; test: Growth inhibition of human HT-29 cells assessed as cell growth at 0.01 uM incubated for 48 hrs by sulforhodamine B assay relative to control; format: functional; conditions: HT-29, 48 h, read-out: Activity
[9] = tested on: T47D; test: Growth inhibition of human T47D cells assessed as cell growth at 0.01 uM incubated for 48 hrs by sulforhodamine B assay relative to control; format: functional; conditions: read-out: Activity
[10] = tested on: NCI-H226; test: Growth inhibition of human NCI-H226 cells assessed as cell growth at 0.1 uM incubated for 48 hrs by sulforhodamine B assay relative to control; format: functional; conditions: NCI-H226, 48 h, read-out: Activity
[11] = tested on: NCI-H460; test: Growth inhibition of human NCI-H460 cells assessed as cell growth at 0.1 uM incubated for 48 hrs by sulforhodamine B assay relative to control; format: functional; conditions: NCI-H460, 48 h, read-out: Activity
[12] = tested on: HCT-116; test: Growth inhibition of human HCT116 cells assessed as cell growth at 0.1 uM incubated for 48 hrs by sulforhodamine B assay relative to control; format: functional; conditions: HCT-116, 48 h, read-out: Activity
[13] = tested on: SF-268; test: Growth inhibition of human SF268 cells assessed as cell growth at 0.1 uM incubated for 48 hrs by sulforhodamine B assay relative to control; format: functional; conditions: SF-268, 48 h, read-out: Activity
[14] = tested on: UACC-257; test: Growth inhibition of human UACC257 cells assessed as cell growth at 0.1 uM incubated for 48 hrs by sulforhodamine B assay relative to control; format: functional; conditions: UACC-257, 48 h, read-out: Activity
[15] = tested on: OVCAR-3; test: Growth inhibition of human OVCAR3 cells assessed as cell growth at 0.1 uM incubated for 48 hrs by sulforhodamine B assay relative to control; format: functional; conditions: OVCAR-3, 48 h, read-out: Activity
[16] = tested on: RPMI-8226; test: Growth inhibition of human RPMI8226 cells assessed as cell growth at 1 uM incubated for 48 hrs by sulforhodamine B assay relative to control; format: functional; conditions: RPMI-8226, 48 h, read-out: Activity
[17] = tested on: HOP-62; test: Growth inhibition of human HOP62 cells assessed as cell growth at 1 uM incubated for 48 hrs by sulforhodamine B assay relative to control; format: functional; conditions: HOP-62, 48 h, read-out: Activity
[18] = tested on: HCT-15; test: Growth inhibition of human HCT15 cells assessed as cell growth at 1 uM incubated for 48 hrs by sulforhodamine B assay relative to control; format: functional; conditions: HCT-15, 48 h, read-out: Activity
[19] = tested on: SF-268; test: Growth inhibition of human SF268 cells assessed as cell growth at 1 uM incubated for 48 hrs by sulforhodamine B assay relative to control; format: functional; conditions: SF-268, 48 h, read-out: Activity
[20] = tested on: SF-295; test: Growth inhibition of human SF295 cells assessed as cell growth at 1 uM incubated for 48 hrs by sulforhodamine B assay relative to control; format: functional; conditions: SF-295, 48 h, read-out: Activity
[21] = tested on: U-251; test: Growth inhibition of human U251 cells assessed as cell growth at 1 uM incubated for 48 hrs by sulforhodamine B assay relative to control; format: functional; conditions: U-251, 48 h, read-out: Activity
[22] = tested on: Hs-578T; test: Growth inhibition of human Hs578T cells assessed as cell growth at 1 uM incubated for 48 hrs by sulforhodamine B assay relative to control; format: functional; conditions: read-out: Activity
[23] = tested on: BT-549; test: Growth inhibition of human BT549 cells assessed as cell growth at 1 uM incubated for 48 hrs by sulforhodamine B assay relative to control; format: functional; conditions: BT-549, 48 h, read-out: Activity
[24] = tested on: COLO 205; test: Growth inhibition of human COLO205 cells assessed as cell growth at 100 uM incubated for 48 hrs by sulforhodamine B assay relative to control; format: functional; conditions: COLO 205, 48 h, read-out: Activity
[25] = tested on: HCT-15; test: Growth inhibition of human HCT15 cells assessed as cell growth at 100 uM incubated for 48 hrs by sulforhodamine B assay relative to control; format: functional; conditions: HCT-15, 48 h, read-out: Activity
[26] = tested on: SNB-75; test: Growth inhibition of human SNB75 cells assessed as cell growth at 100 uM incubated for 48 hrs by sulforhodamine B assay relative to control; format: functional; conditions: SNB-75, 48 h, read-out: Activity
[27] = tested on: M14; test: Growth inhibition of human M14 cells assessed as cell growth at 100 uM incubated for 48 hrs by sulforhodamine B assay relative to control; format: functional; conditions: M14, 48 h, read-out: Activity
[28] = tested on: OVCAR-3; test: Growth inhibition of human OVCAR3 cells assessed as cell growth at 100 uM incubated for 48 hrs by sulforhodamine B assay relative to control; format: functional; conditions: OVCAR-3, 48 h, read-out: Activity
[29] = tested on: 786-0; test: Growth inhibition of human 786-0 cells assessed as cell growth at 100 uM incubated for 48 hrs by sulforhodamine B assay relative to control; format: functional; conditions: 786-0, 48 h, read-out: Activity
[30] = tested on: UO-31; test: Growth inhibition of human UO31 cells assessed as cell growth at 100 uM incubated for 48 hrs by sulforhodamine B assay relative to control; format: functional; conditions: UO-31, 48 h, read-out: Activity
[31] = tested on: PC-3; test: Growth inhibition of human PC3 cells assessed as cell growth at 100 uM incubated for 48 hrs by sulforhodamine B assay relative to control; format: functional; conditions: PC-3, 48 h, read-out: Activity
[32] = read-out: LC50 (the source's name)
[33] = read-out: pLC50 (the source's name) (converted)

O=C(Nc1cccc(-n2cc(-c3ccncc3)c(-c3cc(O)cc(Cl)c3)n2)c1)c1ccc(N2CCOCC2)c(C(F)(F)F)c1
growth at 10 µM [1]: 18.8%
GI50 ([2]; read-out: GI50): 0.514 µM
CC50 [2, 32]: 25.1 µM
TGI ([2]; read-out: TGI): 27.8 µM
GI50 ([2]; read-out: pGI50 (converted)): 0.617 µM
CC50 [2, 33]: 28.2 µM
TGI ([2]; read-out: pTGI (converted)): 2.75 µM
GI50 ([3]; read-out: GI50): 1.44 µM
CC50 [3, 32]: > 100 µM
TGI ([3]; read-out: TGI): 44.7 µM
GI50 ([3]; read-out: pGI50 (converted)): 1.45 µM
CC50 [3, 33]: > 100 µM
TGI ([3]; read-out: pTGI (converted)): 4.47 µM
GI50 ([4]; read-out: GI50): 5.55 µM
CC50 [4, 32]: > 100 µM
TGI ([4]; read-out: TGI): > 100 µM
GI50 ([4]; read-out: pGI50 (converted)): 5.62 µM
CC50 [4, 33]: > 100 µM
TGI ([4]; read-out: pTGI (converted)): > 100 µM
GI50 ([5]; read-out: GI50): 4.18 µM
LC50 ([5]; read-out: LC50): > 100 µM
TGI ([5]; read-out: TGI): > 100 µM
GI50 ([5]; read-out: pGI50 (converted)): 4.17 µM
LC50 ([5]; read-out: pLC50 (converted)): > 100 µM
TGI ([5]; read-out: pTGI (converted)): > 100 µM
growth at 0.01 µM [6]: 92%
growth at 0.01 µM [7]: 102%
growth at 0.01 µM [8]: 93%
growth at 0.01 µM [9]: 97%
growth at 0.1 µM [10]: 93%
growth at 0.1 µM [11]: 104%
growth at 0.1 µM [12]: 102%
growth at 0.1 µM [13]: 101%
growth at 0.1 µM [14]: 91%
growth at 0.1 µM [15]: 113%
growth at 1 µM [16]: 17%
growth at 1 µM [17]: 85%
growth at 1 µM [18]: 35%
growth at 1 µM [19]: 89%
growth at 1 µM [20]: 39%
growth at 1 µM [21]: 51%
growth at 1 µM [22]: 59%
growth at 1 µM [23]: 75%
growth at 100 µM [24]: -17%
growth at 100 µM [25]: -54%
growth at 100 µM [26]: 1%
growth at 100 µM [27]: -54%
growth at 100 µM [28]: 30%
growth at 100 µM [29]: -82%
growth at 100 µM [30]: -33%
growth at 100 µM [31]: -8%

COc1cc(Cl)cc(-c2nn(-c3cccc(NC(=O)c4cccc(C(F)(F)F)c4)c3)cc2-c2ccncc2)c1
growth at 10 µM [1]: 32.2%
CC50 [2, 32]: > 100 µM
TGI ([2]; read-out: TGI): > 100 µM
GI50 ([2]; read-out: pGI50 (converted)): 3.89 µM
CC50 [2, 33]: > 100 µM
TGI ([2]; read-out: pTGI (converted)): > 100 µM
GI50 ([3]; read-out: GI50): > 100 µM
CC50 [3, 32]: > 100 µM
TGI ([3]; read-out: TGI): > 100 µM
GI50 ([3]; read-out: pGI50 (converted)): > 100 µM
CC50 [3, 33]: > 100 µM
TGI ([3]; read-out: pTGI (converted)): > 100 µM
GI50 ([4]; read-out: GI50): > 100 µM
CC50 [4, 32]: > 100 µM
TGI ([4]; read-out: TGI): > 100 µM
GI50 ([4]; read-out: pGI50 (converted)): > 100 µM
CC50 [4, 33]: > 100 µM
TGI ([4]; read-out: pTGI (converted)): > 100 µM
GI50 ([5]; read-out: GI50): 4.17 µM
LC50 ([5]; read-out: LC50): > 100 µM
TGI ([5]; read-out: TGI): > 100 µM
GI50 ([5]; read-out: pGI50 (converted)): 4.17 µM
LC50 ([5]; read-out: pLC50 (converted)): > 100 µM
TGI ([5]; read-out: pTGI (converted)): > 100 µM
growth at 0.01 µM [6]: 57%
growth at 0.01 µM [7]: 108%
growth at 0.01 µM [8]: 90%
growth at 0.01 µM [9]: 99%
growth at 0.1 µM [10]: 90%
growth at 0.1 µM [11]: 99%
growth at 0.1 µM [12]: 94%
growth at 0.1 µM [13]: 100%
growth at 0.1 µM [14]: 91%
growth at 0.1 µM [15]: 108%
growth at 1 µM [16]: 79%
growth at 1 µM [17]: 101%
growth at 1 µM [18]: 71%
growth at 1 µM [19]: 100%
growth at 1 µM [20]: 57%
growth at 1 µM [21]: 65%
growth at 1 µM [22]: 52%
growth at 1 µM [23]: 94%
growth at 100 µM [24]: 45%
growth at 100 µM [25]: 28%
growth at 100 µM [26]: 49%
growth at 100 µM [27]: 27%
growth at 100 µM [28]: 38%
growth at 100 µM [29]: 44%
growth at 100 µM [30]: 37%
growth at 100 µM [31]: 17%
